The assay addresses T1, MAT2A (S-adenosylmethionine synthase isoform type-2) (Homo sapiens, UniProt P31153).
T1 construct: Recombinant human MAT2A (Addgene plasmid #53648), expressed in E. coli BL21 (DE3) Rosetta
The assay can be described thus: MAT2A enzymatic assay with pre-incubation, phosphate colorimetric readout. It is filed as biochemical.

T1 sequence (P31153 whole entry, canonical isoform): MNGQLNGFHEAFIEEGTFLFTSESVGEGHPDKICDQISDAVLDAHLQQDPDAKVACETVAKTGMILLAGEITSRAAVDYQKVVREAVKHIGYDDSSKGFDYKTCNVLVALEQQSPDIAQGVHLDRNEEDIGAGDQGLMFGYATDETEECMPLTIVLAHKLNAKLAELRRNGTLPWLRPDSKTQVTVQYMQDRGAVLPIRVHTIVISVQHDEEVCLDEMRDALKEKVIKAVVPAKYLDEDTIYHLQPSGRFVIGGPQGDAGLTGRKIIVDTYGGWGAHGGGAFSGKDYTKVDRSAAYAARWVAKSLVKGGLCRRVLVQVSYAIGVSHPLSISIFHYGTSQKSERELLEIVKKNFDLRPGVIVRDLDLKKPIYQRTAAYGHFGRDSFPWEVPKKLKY

By IC50 is commonly meant the midpoint of a concentration-inhibition curve. A higher IC50 goes with lower potency. `C1N2CN3CN1CP(C2)C3.Cc1ccccc1.[Cl][Ru][Cl]` [RAPTA-T] gave an IC50 of 107 ± 13 µM.
